This test concerns the target T1, SPHK1 (Homo sapiens, UniProt Q9NYA1).
T1 construct: purchased Thermo Fisher Scientific (Life Technologies) SelectScreen
In words: SelectScreen Adapta. The class given is biochemical. The gist of the method:
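Percent values come from Thermo SelectScreen profiling of NU5455, combining activity and binding assays. CSF1R was run in Z'LYTE format at Km app ATP, and CAMK1 in Adapta format with ATP listed at 10.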

Structures are written as SMILES.

T1 sequence (Q9NYA1 whole entry): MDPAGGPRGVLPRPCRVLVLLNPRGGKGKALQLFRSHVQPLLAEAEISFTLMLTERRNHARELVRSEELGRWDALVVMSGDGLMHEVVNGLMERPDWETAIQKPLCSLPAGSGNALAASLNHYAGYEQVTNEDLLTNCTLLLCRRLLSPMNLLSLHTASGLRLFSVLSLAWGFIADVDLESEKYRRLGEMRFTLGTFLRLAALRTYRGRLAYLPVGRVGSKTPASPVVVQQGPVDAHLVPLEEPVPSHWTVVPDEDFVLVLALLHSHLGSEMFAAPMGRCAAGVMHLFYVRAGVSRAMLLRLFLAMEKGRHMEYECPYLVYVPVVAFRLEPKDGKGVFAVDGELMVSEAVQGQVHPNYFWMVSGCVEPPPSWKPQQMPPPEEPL

The inhibition is the change of the read-out against control, counted positive when it falls. High values mean strong suppression, low ones little suppression. As to `CN(C(=O)CN1CCOCC1)c1ccc2sc3c(-c4cccc5c(=O)cc(N6CC7CCC(C6)O7)oc45)cccc3c2c1` [NU5455], the inhibition at 1 µM is 2.7%.

Source of the values: publication PMC6934184, “Selective DNA-PKcs inhibition extends the therapeutic index of localized radiotherapy and chemotherapy” (The Journal of Clinical Investigation, 2019).
